The target in the assay is T1, canine plasminogen (DPGN) (Canis lupus, UniProt P80009).
T1 construct: gene PLG; intact plasminogen purified from dog blood (samples showing conversion to lys-plasminogen or plasmin discarded)
The assay can be described thus: titration followed by 4th derivative near-UV absorption spectroscopy (R-values). Format: binding.

T1 sequence (P80009 with tags, fused parts or gaps): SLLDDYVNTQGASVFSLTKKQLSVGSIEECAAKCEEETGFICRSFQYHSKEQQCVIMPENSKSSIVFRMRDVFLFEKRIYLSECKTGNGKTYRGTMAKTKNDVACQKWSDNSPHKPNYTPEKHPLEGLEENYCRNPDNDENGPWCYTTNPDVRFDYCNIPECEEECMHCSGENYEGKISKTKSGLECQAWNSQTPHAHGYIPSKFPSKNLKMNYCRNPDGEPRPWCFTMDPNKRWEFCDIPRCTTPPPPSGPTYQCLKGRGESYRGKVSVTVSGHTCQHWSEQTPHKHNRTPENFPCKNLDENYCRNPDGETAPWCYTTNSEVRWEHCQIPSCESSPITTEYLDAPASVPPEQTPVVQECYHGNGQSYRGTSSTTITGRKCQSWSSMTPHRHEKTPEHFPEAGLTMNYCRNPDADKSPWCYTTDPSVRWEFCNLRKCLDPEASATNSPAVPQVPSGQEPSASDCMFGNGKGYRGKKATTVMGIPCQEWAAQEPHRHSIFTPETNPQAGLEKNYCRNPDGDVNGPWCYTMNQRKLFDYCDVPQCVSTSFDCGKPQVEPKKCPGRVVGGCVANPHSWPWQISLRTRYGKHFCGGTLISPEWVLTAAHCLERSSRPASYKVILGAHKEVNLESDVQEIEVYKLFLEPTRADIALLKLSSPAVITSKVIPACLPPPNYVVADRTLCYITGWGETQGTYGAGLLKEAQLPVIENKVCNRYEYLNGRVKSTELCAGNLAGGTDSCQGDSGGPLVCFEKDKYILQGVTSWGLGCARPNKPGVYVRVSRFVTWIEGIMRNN

As to `NCCCCCC(=O)O` [6-AH, 6-aminohexanoate], the Kd was approximately 1 µM.

The Kd is a measure of binding affinity in units of concentration. Low values mean tighter binding, high ones weaker binding.

The values above are taken from publication PMC2716805, “Canine Plasminogen: Spectral Responses to Changes in 6-Aminohexanoate and Temperature” (2007).
